{"source": "patent US20160338992A1", "about": "“COMPOSITE COMPRISING 3'-HYDROXYGENISTEIN AND USE FOR INHIBITION OF MELANOGENESIS” (BIO-JOURDENESS INTERNATIONAL GROUP CO., LTD., priority 2015, published 2016)", "key": {"tyrosinase [1]": {"test_system": "tyrosinase", "test": "Effect on tyrosinase activity (L-DOPA to dopachrome, absorbance at 475 nm)", "format": "biochemical", "details": "for effect on tyrosinase activity (FIG. 2): 10-40 μM", "method": "Tyrosinase plays an important role on melanogenesis. Thus the effect of 3′-hydroxygenistein on tyrosinase is detected. First dissolve 1 μL 3′-hydroxygenistein in DMSO (dimethyl sulfoxide) and mixed with 5 μL tyrosinase in a 94 μL, 50 mM PBS (pH 6.8). Add 0.9 mL, 2.5 mM L-DOPA (dissolved in 50 mM PBS, pH 6.8) into the mixture and react at 25° C. for 10 minutes."}, "B16 melanoma 4A5 cells [2]": {"test_system": "B16 melanoma 4A5 cells", "test": "Melanin content in IBMX-stimulated cells", "format": "cell-based, mouse", "details": "400 μM IBMX, 2 days; for effect on melanogenesis (FIG. 4): 10 μM and 20 μM", "method": "In this experiment, 3-isobutyl-1-methylxanthine (IBMX) is used as a melanogenic-stimulating agent while genistein and danazol with inhibitory effect on melanogenesis are used as positive controls. The B 16 melanoma 4A5 cells are cultured in DMEM containing 10% (v/v) fetal bovine serum (FBS) in a 5% CO2 humidified incubator at 37° C. Then seed cells in a 24-well plate with proper density. After one day, the cells are treated with 5 μM, 10 μM, and 20 μM 3′-hydroxygenistein respectively in the presence of 400 μM IBMX and cultured for 2 days. Then collect and wash the cells with PBS (Phosphate Buffered Saline) buffer twice. The cell pellets are dissolved in lysis buffer containing 20 mM trisodium phosphate (pH6.8) and 1% Triton X-100. After centrifugation at 15,000×g for 15 minutes, melanin pellets are dissolved in 1N NaOH containing 20% DMSO at 95° C. for 1 hour. Use spectrophotometer ((U-5100; Hitachi, Japan) to detect absorbance of melanin at 490 nm. The melanin content is expressed as percentage of the control group (IBMX group)."}, "B16 melanoma 4A5 cells [3]": {"test_system": "B16 melanoma 4A5 cells", "test": "Cell viability by MTT assay", "format": "cell-based, mouse", "details": "48 hours", "method": "In order to confirm a non-cytotoxic concentration range of 3′-hydroxygenistein, MTT and crystal violet staining assays are used to detect cell viability of 3′-hydroxygenistein. A mouse melanoma cell line (B16 melanoma 4A5 obtained from bioresource Collection and Research Center, Food Industry Research and Development Institute) is cultured in DMEM (Dulbecco's Modified Eagle Medium) containing 10% (v/v) fetal bovine serum (FBS) in a 5% CO2 humidified incubator for 24 hours. The B16 melanoma 4A5 cells are treated with 3′-hydroxygenistein for 48 hours. Then remove the culture medium, add 1 mg/mL MTT dissolved in PBS and incubate for 2 hours. Next remove MTT solution and add DMSO. At last, use spectrophotometer ((U-5100; Hitachi, Japan) to detect absorbance of dissolved formazan crystals at 475 nm. The cell viability is expressed as percentage of control (% of control)."}, "melanin cells": {"test_system": "melanin cells", "details": "30 μM to 60 μM; cited from earlier work"}, "tyrosinase [4]": {"test_system": "tyrosinase", "details": "cited from earlier work"}}}
{"smiles": "O=c1c(-c2ccc(O)c(O)c2)coc2cc(O)cc(O)c12", "note": "[3′-hydroxygenistein]", "values": [{"measurement": "effect on tyrosinase activity (FIG. 2)", "setting": "tyrosinase [1]", "result": "inhibits tyrosinase activity in a dose-dependent manner"}, {"measurement": "IC50", "setting": "tyrosinase [1]; L-DOPA substrate, 25° C., 10 minutes, pH 6.8, read-out: half-inhibitory concentration (IC50) in inhibiting tyrosinase", "result": 15.9, "unit": "µM"}, {"measurement": "tyrosinase inhibitory activity, times stronger than kojic acid", "setting": "tyrosinase [1]; ratio of IC50 values, kojic acid as the standard", "result": 11, "unit": "times"}, {"measurement": "effect on melanogenesis (FIG. 4)", "setting": "B16 melanoma 4A5 cells [2]", "result": "show inhibition of melanogenesis"}, {"measurement": "melanin content, percentage of the control group (IBMX group)", "setting": "B16 melanoma 4A5 cells [2]; 20 μM", "result": 50.5, "unit": "%"}, {"measurement": "inhibitory effect on melanogenesis compared with danazol", "setting": "B16 melanoma 4A5 cells [2]", "result": "better than danazol"}, {"measurement": "cytotoxicity (cell survival rate, FIG. 3)", "setting": "B16 melanoma 4A5 cells [3]; 40 μM", "result": "shows cytotoxicity"}, {"measurement": "cytotoxicity (cell survival rate, FIG. 3)", "setting": "B16 melanoma 4A5 cells [3]; concentration between 10 μM and 20 μM", "result": "no cytotoxicity"}]}
{"smiles": "O=c1c(-c2ccc(O)cc2)coc2cc(O)cc(O)c12", "note": "[genistein]", "values": [{"measurement": "effect on melanin production (literature)", "setting": "melanin cells", "result": "induce melanin cells to produce more melanin"}, {"measurement": "effect on tyrosinase activity (FIG. 2)", "setting": "tyrosinase [1]", "result": "no tyrosinase inhibitory activity"}, {"measurement": "effect on melanogenesis (FIG. 4)", "setting": "B16 melanoma 4A5 cells [2]", "result": "no inhibitory effect on melanogenesis"}]}
{"smiles": "O=c1c(-c2ccc(O)cc2)coc2c(O)c(O)ccc12", "note": "[8-OHDe, 7,8,4′-trihrdroxyisoflavone]", "values": [{"measurement": "tyrosinase inhibitory activity, times stronger than daidzein", "setting": "tyrosinase [4]; Taiwanese Pat. No. 1312686", "result": 30, "unit": "times"}, {"measurement": "tyrosinase inhibition activity (literature)", "setting": "tyrosinase [4]", "result": "have tyrosinase inhibition activity"}]}
{"smiles": "O=c1c(-c2ccc(O)cc2)coc2c(O)c(O)cc(O)c12", "note": "[8-hydroxygenistein, 5,7,8,4′-tetrahydroxyisoflavone]", "values": [{"measurement": "tyrosinase inhibitory activity, times stronger than genistein", "setting": "tyrosinase [4]; Taiwanese Pat. No. 1312686", "result": 90, "unit": "times"}]}
{"smiles": "O=c1c(-c2ccc(O)cc2)coc2cc(O)ccc12", "note": "[daidzein]", "values": [{"measurement": "tyrosinase inhibition activity (literature)", "setting": "tyrosinase [4]", "result": "doesn't have such activity"}]}
{"smiles": "O=c1c(-c2ccc(O)cc2)coc2cc(O)c(O)cc12", "note": "[6-OHDe, 6,7,4′-trihrdroxyisoflavone]", "values": [{"measurement": "tyrosinase inhibitory activity, times stronger than glycitein", "setting": "tyrosinase [4]; Taiwanese Pat. No. 1312686", "result": 25, "unit": "times"}, {"measurement": "tyrosinase inhibition activity (literature)", "setting": "tyrosinase [4]", "result": "have tyrosinase inhibition activity"}]}
